Molecules are shown by their SMILES. pIC50: −log10 of the molar value. Some results are limits rather than exact numbers.

In this experiment the target is T1, Human Glucocorticoid Receptor (Homo sapiens, UniProt P04150).
T1 construct: endogenous in cells; host or cells: cytosol from IM-9 cell line
T1 sequence (P04150 1-777): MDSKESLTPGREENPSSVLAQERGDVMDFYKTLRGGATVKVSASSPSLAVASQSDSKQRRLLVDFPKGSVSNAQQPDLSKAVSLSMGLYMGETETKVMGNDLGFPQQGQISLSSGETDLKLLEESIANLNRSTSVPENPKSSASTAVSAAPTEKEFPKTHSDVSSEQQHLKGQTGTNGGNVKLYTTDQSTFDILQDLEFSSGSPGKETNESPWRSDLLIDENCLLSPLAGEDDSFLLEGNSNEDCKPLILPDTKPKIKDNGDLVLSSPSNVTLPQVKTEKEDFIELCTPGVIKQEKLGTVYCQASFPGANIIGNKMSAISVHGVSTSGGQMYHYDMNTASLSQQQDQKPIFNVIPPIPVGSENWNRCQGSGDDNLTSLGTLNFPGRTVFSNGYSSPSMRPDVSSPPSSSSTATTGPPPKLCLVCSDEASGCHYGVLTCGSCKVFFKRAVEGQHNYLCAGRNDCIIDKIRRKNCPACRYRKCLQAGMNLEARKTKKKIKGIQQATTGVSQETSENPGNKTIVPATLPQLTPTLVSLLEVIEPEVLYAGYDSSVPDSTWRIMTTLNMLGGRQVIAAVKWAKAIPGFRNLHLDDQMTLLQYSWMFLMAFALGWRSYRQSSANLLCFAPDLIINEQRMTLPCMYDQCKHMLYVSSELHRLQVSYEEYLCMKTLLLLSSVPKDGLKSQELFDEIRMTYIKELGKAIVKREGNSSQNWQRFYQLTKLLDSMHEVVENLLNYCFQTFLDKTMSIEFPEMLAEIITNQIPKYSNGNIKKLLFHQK
Put plainly: Competition Binding in IM-9 Human Glucocorticoid Receptor (GR IM-9). The following applies: cytosol from IM-9 cell line, 1.5 nM [3H]-Dexamethasone, 4° C. for 6 hours. How it is done: Competition Binding in IM-9 Human Glucocorticoid Receptor (GR IM-9)
Glucocorticoid receptor competition binding assays were carried out in a polypropilene 96-well plate. In each well was incubated 100 μg of cytosol from IM-9 cell line, 1.5 nM [3H]-Dexamethasone (71 Ci/mmol, 1 mCi/ml, Perkin Elmer NET1192001MC) and compounds studied and standard. Non-specific binding was determined in the presence of Triamcinolone 10 μM (Sigma Aldrich T6376).
The reaction mixture (Vt: 200 μl/well) was incubated at 4° C. for 6 hours, 180 μL was transferred to GF/B 96-well plate (Millipore, Madrid, Spain) pretreated with 0.5% of PEI and treated with binding buffer (TES 10 mM, sodium molybdate 10 mM, EDTA 1 mM, pH 7.4, 2-mercaptoethanol 20 mM, Glycerol 10%) after was filtered and washed six times with 250 μl wash buffer (TES 10 mM, sodium molybdate 10 mM, EDTA 1 mM, pH 7.4, 2-mercaptoethanol 20 mM Glycerol 10%), before measuring in a microplate beta scintillation counter (Microbeta Trilux, PerkinElmer, Madrid, Spain).
The compound `COC(=O)C1=C(C2CC2)NC(C)=C(C#N)C1c1csc2c(C#N)cccc12` (centres unmarked) [Example C104, Methyl 5-cyano-4-(7-cyanobenzo[b]thiophen-3-yl)-2-cyclopropyl-6-methyl-1,4-dihydropyridine-3-carboxylate] showed a negative logarithm of the IC50 (pIC50) of over 7.00.
Then `CC(=O)C1=C(C)NC(N)=C(C(=O)OCc2ccc(F)cc2)C1c1csc2c(C#N)cccc12` (centres unmarked) [Example D13, 4-fluorobenzyl 5-acetyl-2-amino-4-(7-cyanobenzo[b]thiophen-3-yl)-6-methyl-1,4-dihydropyridine-3-carboxylate], with over 7.00; and `CC(=O)C1=C(C)NC(C)=C(C(=O)OC(C)(C)c2ccccc2)C1c1csc2c(Br)cccc12` (centres unmarked) [Example C86, 2-phenylpropan-2-yl 5-acetyl-4-(7-bromobenzo[b]thiophen-3-yl)-2,6-dimethyl-1,4-dihydropyridine-3-carboxylate], with 6.00 to 7.00.
Then `COC(=O)C1=C(COCCN)NC(C)=C(C(C)=O)C1c1csc2c(Br)cccc12` (centres unmarked) [Example C115, Methyl 5-acetyl-2-((2-aminoethoxy)methyl)-4-(7-bromobenzo[b]thiophen-3-yl)-6-methyl-1,4-dihydropyridine-3-carboxylate], with at most 6.00; and `COC(=O)C1=C(C)NC(N)=C(C(=O)OCC2CC2)C1c1csc2c(C#N)c(Cl)ccc12` (centres unmarked) [Example D52, 3-(Cyclopropylmethyl) 5-methyl 2-amino-4-(6-chloro-7-cyanobenzo[b]thiophen-3-yl)-6-methyl-1,4-dihydropyridine-3,5-dicarboxylate], with over 7.00.
The same measure for `CC(=O)C1=C(C)NC(C)=C(C(=O)OCc2ccnc(Cl)c2)C1c1csc2ncccc12` (centres unmarked) [Example C77, (2-chloropyridin-4-yl)methyl 5-acetyl-2,6-dimethyl-4-(thieno[2,3-b]pyridin-3-yl)-1,4-dihydropyridine-3-carboxylate]: 6.00 to 7.00.
In turn, `COC(=O)C1=C(C)NC(N)=C(C(=O)OCC(F)(F)F)C1c1csc2c(C#N)cccc12` (centres unmarked) [Example D50, 5-Methyl 3-(2,2,2-trifluoroethyl) 2-amino-4-(7-cyanobenzo[b]thiophen-3-yl)-6-methyl-1,4-dihydropyridine-3,5-dicarboxylate] had a pIC50 of over 7.00.
The same measure for `COC(=O)C1=C(N)NC(N)=C(C(=O)OC)C1c1csc2c(C#N)cccc12` [Example D20, dimethyl 2,6-diamino-4-(7-cyanobenzo[b]thiophen-3-yl)-1,4-dihydropyridine-3,5-dicarboxylate]: 6.00 to 7.00; for `CC(=O)C1=C(C)NC(C2CC2)=C(C(=O)OC(C)C)C1c1csc2c(Br)cccc12` (centres unmarked) [Example C82, Isopropyl 5-acetyl-4-(7-bromobenzo[b]thiophen-3-yl)-2-cyclopropyl-6-methyl-1,4-dihydropyridine-3-carboxylate]: over 7.00.
Then `CC(=O)C1=C(C)NC(C)=C(C(=O)OCc2ccnc(-c3ccncc3)c2)C1c1csc2ncccc12` (centres unmarked) [Example L12, [2,4′-bipyridin]-4-ylmethyl 5-acetyl-2,6-dimethyl-4-(thieno[2,3-b]pyridin-3-yl)-1,4-dihydropyridine-3-carboxylate], with 6.00 to 7.00; and `COC(=O)C1=C(N)NC(C)=C(C(C)=O)C1c1csc2ncc(F)cc12` (centres unmarked) [Example D14, Methyl 5-acetyl-2-amino-4-(5-fluorothieno[2,3-b]pyridin-3-yl)-6-methyl-1,4-dihydropyridine-3-carboxylate], with at most 6.00; and `COC(=O)C1=C(NC(C)=O)NC(C)=C(C(C)=O)C1c1csc2ncc(F)cc12` (centres unmarked) [Example D15, Methyl 2-acetamido-5-acetyl-4-(5-fluorothieno[2,3-b]pyridin-3-yl)-6-methyl-1,4-dihydropyridine-3-carboxylate], with 6.00 to 7.00.
Then `CC(=O)C1=C(C)NC(N)=C(C(=O)OCC2CC2)C1c1csc2cc(C#N)ccc12` (centres unmarked) [Example D28, Cyclopropylmethyl 5-acetyl-2-amino-4-(6-cyanobenzo[b]thiophen-3-yl)-6-methyl-1,4-dihydropyridine-3-carboxylate], with 6.00 to 7.00.
As to `CC(=O)C1=C(C)NC(C2CC2)=C(C(=O)OCc2cccc(Cl)c2)C1c1csc2ncccc12` (centres unmarked) [Example C94, 3-chlorobenzyl 5-acetyl-2-cyclopropyl-6-methyl-4-(thieno[2,3-b]pyridin-3-yl)-1,4-dihydropyridine-3-carboxylate], the pIC50 was over 7.00.
Then `COC(=O)C1=C(C)NC(N)=C(C(=O)OCC2CC2)C1c1csc2c(C#N)cccc12` (centres unmarked) [Example D17, 3-(cyclopropylmethyl) 5-methyl 2-amino-4-(7-cyanobenzo[b]thiophen-3-yl)-6-methyl-1,4-dihydropyridine-3,5-dicarboxylate], with over 7.00; and `CC(=O)C1=C(C)NC(N)=C(C(=O)OC2CCC(F)(F)CC2)C1c1csc2c(C#N)cccc12` (centres unmarked) [Example D11, 4,4-difluorocyclohexyl 5-acetyl-2-amino-4-(7-cyanobenzo[b]thiophen-3-yl)-6-methyl-1,4-dihydropyridine-3-carboxylate], with over 7.00; and `O=C(OCc1ccc(F)cc1)C1=C(C2CC2)NC(C2CC2)=C(C(=O)OCc2ccc(F)cc2)C1c1csc2ncccc12` [Example J42-a, bis(4-fluorobenzyl) 2,6-dicyclopropyl-4-(thieno[2,3-b]pyridin-3-yl)-1,4-dihydropyridine-3,5-dicarboxylate], with 6.00 to 7.00.
Then `COC(=O)C1=C(C2CCCC2)NC(C)=C(C(C)=O)C1c1csc2c(Br)cccc12` (centres unmarked) [Example C105, Methyl 5-acetyl-4-(7-bromobenzo[b]thiophen-3-yl)-2-cyclopentyl-6-methyl-1,4-dihydropyridine-3-carboxylate], with 6.00 to 7.00.
For `CC(=O)C1=C(C)NC(C2CC2)=C(C(=O)OC(C)(C)c2ccc(F)cc2)C1c1csc2ncccc12` (centres unmarked) [Example C97, 2-(4-fluorophenyl)propan-2-yl 5-acetyl-2-cyclopropyl-6-methyl-4-(thieno[2,3-b]pyridin-3-yl)-1,4-dihydropyridine-3-carboxylate], the pIC50 was over 7.00.
The same measure for `COC(=O)C1=C(C)NC(C2CC2)=C(C(=O)OCC2CC2)C1c1csc2c(C#N)cccc12` (centres unmarked) [Example C109, 3-(cyclopropylmethyl) 5-methyl 4-(7-cyanobenzo[b]thiophen-3-yl)-2-cyclopropyl-6-methyl-1,4-dihydropyridine-3,5-dicarboxylate]: over 7.00; for `CC(=O)C1=C(C)NC(C2CC2)=C(C(=O)C2CC2)C1c1csc2c(Br)cccc12` (centres unmarked) [Example C93, 1-(4-(7-Bromobenzo[b]thiophen-3-yl)-5-(cyclopropanecarbonyl)-6-cyclopropyl-2-methyl-1,4-dihydropyridin-3-yl)ethan-1-one]: 6.00 to 7.00.
As for `COC(=O)C1=C(C2CC2)NC(C2CC2)=C(C(=O)OC)C1c1csc2ccc(Cl)cc12` [Example J25-a, Dimethyl 4-(5-chlorobenzo[b]thiophen-3-yl)-2,6-dicyclopropyl-1,4-dihydropyridine-3,5-dicarboxylate], the pIC50 was 6.00 to 7.00.
Then `CC(=O)C1=C(C)NC(N)=C(C(=O)OCC2CCCC2)C1c1csc2c(C#N)cccc12` (centres unmarked) [Example D16, Cyclopentylmethyl 5-acetyl-2-amino-4-(7-cyanobenzo[b]thiophen-3-yl)-6-methyl-1,4-dihydropyridine-3-carboxylate], with over 7.00.
The compound `CC(=O)C1=C(C)NC(C2CC2)=C(C(=O)OC2CCCC2)C1c1csc2ncccc12` (centres unmarked) [Example C100, Cyclopentyl 5-acetyl-2-cyclopropyl-6-methyl-4-(thieno[2,3-b]pyridin-3-yl)-1,4-dihydropyridine-3-carboxylate] gave a pIC50 of over 7.00.
The same measure for `COC(=O)C1=C(C2CC2)NC(C)=C(C(C)=O)C1c1csc2c(C(=O)C(F)(F)F)cccc12` (centres unmarked) [Example C85, Methyl 5-acetyl-2-cyclopropyl-6-methyl-4-(7-(2,2,2-trifluoroacetyl)benzo[b]thiophen-3-yl)-1,4-dihydropyridine-3-carboxylate]: at most 6.00.
`CC(=O)C1=C(C)NC(N)=C(C(=O)OCC2CC2)C1c1csc2c(C#N)cccc12` (centres unmarked) [Example D10, Cyclopropylmethyl 5-acetyl-2-amino-4-(7-cyanobenzo[b]thiophen-3-yl)-6-methyl-1,4-dihydropyridine-3-carboxylate] showed a pIC50 of over 7.00.

The pIC50 is the negative decadic logarithm of the IC50, by convention in mol/L. Read a low pIC50 as a high IC50.

The values are drawn from patent US11453660B2, “Androgen receptor and glucocorticoid receptor modulators” (ONCOSTELLAE, S.L., priority 2017, dated 2022).
